One test has as its system SW480 (G12V). The experiment in a line: In vitro cell proliferation inhibition test (CellTiter-Glo), SW480. The class given is cell-based. Conditions: Homo sapiens, SW480 colon cell line, KRAS (p.G12V), 72 h co-incubation. In outline:
(§1)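 IC50 was derived by four-parameter fitting of normalized CellTiter-Glo signals. These were measured after 72 h co-incubation with compound at 10 concentrations, 3-fold serial, final maximum 10 μM. Plating was 1000-5000 cells/well, adjusted to growth rate, with overnight attachment at 37 °C, 5% CO2.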
(In general: Cellular ATP, detected with luciferase, serves as a proxy for viable cell number.)

For the next test, the system named is AsPC-1 (G12D). The experiment in a line: In vitro cell proliferation inhibition test (CellTiter-Glo), AsPC-1. It counts as cell-based. Conditions: Homo sapiens, ASPC1, AsPC-1 pancreas cell line, KRAS (p.G12D), 72 h co-incubation. In outline: as §1

The text below walks through data of US20260193271A1, “PAN-KRAS INHIBITOR COMPOUND” (ADLAI NORTYE BIOPHARMA CO., LTD., priority 2022, published 2026).

`CCn1c(-c2cc(-c3cc([C@H]4COCCN4C)on3)cnc2[C@H](C)OC)c2c3cc(ccc31)-c1csc(n1)C[C@H](NC(=O)[C@H]1[C@H](C)[C@@H]1C)C(=O)N1CCC[C@H](N1)C(=O)OCC(C)(C)C2` (atropisomer, axis not shown) [Compound 33, (1r,2R,3S)-N-((6^3S,4S,Z)-1^1-ethyl-1^2-(2-((S)-1-methoxyethyl)-5-(5-((R)-4-methylmorpholin-3-yl)isoxazol-3-yl)pyridin-3-yl)-10,10-dimethyl-5,7-dioxo-6^1,6^2,6^3,6^4,6^5,6^6-hexahydro-1^1H-8-oxa-2(4,2)-thiazola-1(5,3)-indola-6(1,3)-pyridazinacycloundecaphane-4-yl)-2,3-dimethylcyclopropane-1-carboxamide]: the 50% inhibitory concentration (IC50) (usually the concentration at which inhibition is half-maximal) with SW480 (G12V) came out at 2.1 nM; with AsPC-1 (G12D) it was 0.86 nM.

As to `CCn1c(-c2cc(-c3cc(C4(C)CN(C)C4)on3)cnc2[C@H](C)OC)c2c3cc(ccc31)-c1csc(n1)C[C@H](NC(=O)[C@H]1[C@H](C)[C@@H]1C)C(=O)N1CCC[C@H](N1)C(=O)OCC(C)(C)C2` (atropisomer, axis not shown) [Compound 34, (1r,2R,3S)-N-((6^3S,4S,Z)-1^2-(5-(5-(1,3-dimethylazetidin-3-yl)isoxazol-3-yl)-2-((S)-1-methoxyethyl)pyridin-3-yl)-1^1-ethyl-10,10-dimethyl-5,7-dioxo-6^1,6^2,6^3,6^4,6^5,6^6-hexahydro-1^1H-8-oxa-2(4,2)-thiazola-1(5,3)-indola-6(1,3)-pyridazinacycloundecaphane-4-yl)-2,3-dimethylcyclopropane-1-carboxamide], the IC50 in the test on SW480 (G12V) was 0.17 nM; in the test with AsPC-1 (G12D), 0.16 nM.

As to `CCn1c(-c2cc(-c3cnc(CN4CCOCC4)cn3)cnc2[C@H](C)OC)c2c3cc(ccc31)-c1csc(n1)C[C@H](NC(=O)[C@H]1C[C@@H]1C)C(=O)N1CCC[C@H](N1)C(=O)OCC(C)(C)C2` (atropisomer, axis not shown) [Compound 35, (1S,2S)-N-((6^3S,4S,Z)-1^1-ethyl-1^2-(2-((S)-1-methoxyethyl)-5-(5-(morpholinomethyl)pyrazin-2-yl)pyridin-3-yl)-10,10-dimethyl-5,7-dioxo-6^1,6^2,6^3,6^4,6^5,6^6-hexahydro-1^1H-8-oxa-2(4,2)-thiazola-1(5,3)-indola-6(1,3)-pyridazinacycloundecaphane-4-yl)-2-methylcyclopropane-1-carboxamide], the results for the concentration for half-maximal inhibition (IC50) with SW480 (G12V) and with AsPC-1 (G12D) were 2 nM and 4 nM, respectively.

With `CCn1c(-c2cc(-c3ccn(CCN4CCOCC4)c(=O)c3)cnc2[C@H](C)OC)c2c3cc(ccc31)-c1csc(n1)C[C@H](NC(=O)[C@H]1[C@H](C)[C@@H]1C)C(=O)N1CCC[C@H](N1)C(=O)OCC(C)(C)C2` (atropisomer, axis not shown) [Compound 36, (1r,2R,3S)-N-((6^3S,4S,Z)-1^1-ethyl-1^2-(6-((S)-1-methoxyethyl)-1′-(2-morpholinoethyl)-2′-oxo-1′,2′-dihydro-[3,4′-bipyridin]-5-yl)-10,10-dimethyl-5,7-dioxo-6^1,6^2,6^3,6^4,6^5,6^6-hexahydro-1^1H-8-oxa-2(4,2)-thiazola-1(5,3)-indola-6(1,3)-pyridazinacycloundecaphane-4-yl)-2,3-dimethylcyclopropane-1-carboxamide], the IC50 in the test on SW480 (G12V) came to 1 nM; with AsPC-1 (G12D), 0.39 nM.

As to `CCn1c(-c2cc(-c3cncc(CN4CCS(=O)(=O)CC4)c3)cnc2[C@H](C)OC)c2c3cc(ccc31)-c1csc(n1)C[C@H](NC(=O)[C@H]1[C@H](C)[C@@H]1C)C(=O)N1CCC[C@H](N1)C(=O)OCC(C)(C)C2` (atropisomer, axis not shown) [Compound 37, (1r,2R,3S)-N-((6^3S,4S,Z)-12-(5′-((1,1-dioxidothiomorpholino)methyl)-6-((S)-1-methoxyethyl)-[3,3′-bipyridin]-5-yl)-1^1-ethyl-10,10-dimethyl-5,7-dioxo-6^1,6^2,6^3,6^4,6^5,6^6-hexahydro-1^1H-8-oxa-2(4,2)-thiazola-1(5,3)-indola-6(1,3)-pyridazinacycloundecaphane-4-yl)-2,3-dimethylcyclopropane-1-carboxamide], the half-inhibitory concentration (IC50) in the test with SW480 (G12V) stood at 1.8 nM; in the test with AsPC-1 (G12D) it was 0.9 nM.
